Columns and labels:
[1] = target: T1, Poly [ADP-ribose] polymerase 1 (Homo sapiens, UniProt P09874); assay: Inhibition of PARP1 by microplate scintillation counting
[2] = target: T1, Poly [ADP-ribose] polymerase 1; assay: Inhibition of PARP1 in human C41 cells; format: cell-based

T1 sequence (P09874 whole entry): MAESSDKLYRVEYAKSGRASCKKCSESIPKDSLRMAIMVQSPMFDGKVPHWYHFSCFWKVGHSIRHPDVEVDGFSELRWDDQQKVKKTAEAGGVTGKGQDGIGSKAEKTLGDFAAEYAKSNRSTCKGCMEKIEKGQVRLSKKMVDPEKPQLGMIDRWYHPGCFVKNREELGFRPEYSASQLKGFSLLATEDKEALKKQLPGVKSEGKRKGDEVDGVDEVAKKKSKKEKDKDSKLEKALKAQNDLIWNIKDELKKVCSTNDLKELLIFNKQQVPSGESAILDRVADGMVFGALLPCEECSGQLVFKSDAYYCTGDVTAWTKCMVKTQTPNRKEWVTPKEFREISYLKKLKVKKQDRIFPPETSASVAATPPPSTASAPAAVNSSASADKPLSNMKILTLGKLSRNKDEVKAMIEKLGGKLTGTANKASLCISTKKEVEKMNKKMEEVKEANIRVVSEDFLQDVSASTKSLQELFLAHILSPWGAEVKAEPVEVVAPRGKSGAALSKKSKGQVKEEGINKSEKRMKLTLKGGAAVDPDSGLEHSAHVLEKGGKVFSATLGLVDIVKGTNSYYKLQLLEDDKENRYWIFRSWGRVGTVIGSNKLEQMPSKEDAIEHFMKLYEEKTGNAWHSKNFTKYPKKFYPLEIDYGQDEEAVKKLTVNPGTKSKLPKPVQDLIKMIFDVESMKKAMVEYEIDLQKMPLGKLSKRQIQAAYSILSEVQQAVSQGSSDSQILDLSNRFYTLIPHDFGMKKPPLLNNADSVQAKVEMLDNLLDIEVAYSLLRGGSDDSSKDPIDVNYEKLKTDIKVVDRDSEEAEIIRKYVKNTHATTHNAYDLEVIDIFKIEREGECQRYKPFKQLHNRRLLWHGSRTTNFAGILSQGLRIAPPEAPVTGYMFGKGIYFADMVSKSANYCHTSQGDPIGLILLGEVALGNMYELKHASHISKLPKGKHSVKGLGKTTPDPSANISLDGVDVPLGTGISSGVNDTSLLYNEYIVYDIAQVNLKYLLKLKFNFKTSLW

Row | SMILES | Ki [1] | EC50 [2]
1 | Cc1cccc(N2Cc3cccc(C(N)=O)c3C2=O)c1 | 0.261 µM | 
2 | NC(=O)c1cccc2c1C(=O)N(Cc1cccnc1)C2 | > 9.5 µM | 
3 | NC(=O)c1cccc2c1C(=O)N(CC1CCCN1)C2 (stereo unspecified) | 0.377 µM | 0.374 µM
4 | NC(=O)c1cccc2c1C(=O)N(c1ccc(CN3CCCC3)cc1)C2 | 0.053 µM | 0.053 µM
5 | NC(=O)c1cccc2c1C(=O)N(c1cccc(CN3CCCC3)c1)C2 | 0.391 µM | 
6 | NC(=O)c1cccc2c1C(=O)N(c1cccc(C3CCNCC3)c1)C2 | 0.314 µM | 
7 | NC(=O)c1cccc2c1C(=O)N(C1CCCCC1)C2 | 0.172 µM | > 1 µM
8 | NC(=O)c1cccc2c1C(=O)N(C1CCNC1)C2 (stereo unspecified) | 0.059 µM | 0.16 µM
9 | NC(=O)c1cccc2c1C(=O)N(C1CCNCC1)C2 | 0.033 µM | 0.051 µM
10 | NC(=O)c1cccc2c1C(=O)N(C1CCCNC1)C2 (stereo unspecified) | 0.14 µM | 
11 | NC(=O)c1cccc2c1C(=O)N(CC1CCNCC1)C2 | 0.384 µM | 
12 | NC(=O)c1cccc2c1C(=O)N(CC1CCCNC1)C2 (stereo unspecified) | 0.164 µM | 
13 | CN1CCN(c2ccc(N3Cc4cccc(C(N)=O)c4C3=O)cc2)CC1 | 0.048 µM | 0.022 µM
14 | NC(=O)c1cccc2c1C(=O)N(c1ccc(C3CCNCC3)cc1)C2 | 0.032 µM | 0.12 µM
15 | CC(C)CN1Cc2cccc(C(N)=O)c2C1=O | 0.112 µM | > 1 µM
16 | CN1Cc2cccc(C(N)=O)c2C1=O | 0.123 µM | 
17 | CN(C)c1ccc(N2Cc3cccc(C(N)=O)c3C2=O)cc1 | 0.07 µM | 0.372 µM

— ChEMBL document CHEMBL1159077, “Discovery and SAR of substituted 3-oxoisoindoline-4-carboxamides as potent inhibitors of poly(ADP-ribose) polymerase (PARP) for the treatment of cancer” (Bioorg Med Chem Lett, 2010)
